The source of these data is patent US20130303564A1, “METHOD FOR TREATING A NEURODEGENERATIVE DISORDER” (RUSH UNIVERSITY MEDICAL CENTER, priority 2012, published 2013).

One assay has as its system human iNOS promoter. Conditions: phiNOS(7.2)Luc; 6 h preincubation, IL-1β 20 ng/ml 12 h. As for the experimental part:
(§1) Primary mouse microglia were treated with different concentrations of NaPB for 6 h followed by stimulation with LPS under serum-free condition. After 24 h of stimulation, concentrations of nitrite were measured in supernatants (A) and the level of iNOS protein was monitored in cells by Western blot (B). […] After 5 h of stimulation, the expression of iNOS mRNA was monitored by semi-quantitative RT-PCR (C). Cells preinctibated with different concentration of trichostatin A (TSA) and sodium butyrate (NaBu) for 6 h were stimulated with LPS for 24 h under serum-free condition followed by monitoring the level of nitrite in supernatants (p). […] Primary human astroglia isolated from fetal brain tissues were treated with different concentrations of NaPB for 6 h followed by stimulation with IL-1β under serum-free condition. After 48 h of stimulation, concentrations of nitrite (E) were measured in supernatants. Human astroglia plated at 70-80% confluence in 12-well plates were co-transfected with 0.25 μg of phiNOS(7.2)Luc and 12.5 ng of pRL-TK using the Lipofectamine-Plus (Invitrogen). Twenty-four h after transfection, cells received NaPB. After 6 h of incubation, cells were stimulated with IL-1β (20 ng/ml) for 12 h. Firefly (ff-Luc) and Renilla (r-Luc) luciferase activities were obtained by analyzing the total cell extract (F).

The next assay concerns primary human astroglia. Conditions: 6 h preincubation, IL-1β 48 h. The protocol: as §1
Assay [1] relates to NF-κB. As to the kind of experiment: DNA-binding activity of NF-κB by EMSA in BV-2 microglial cells. Conditions: NaPB different concentrations, 6 h preincubation, LPS 1 h. Format: cell-based, mouse. On the technique in general: In EMSA bound probe runs differently from free probe, usually more slowly.
Description: (§6) Activation of NF-κB was monitored by IκBαphosphorylation, DNA binding activity by EMSA and transcriptional activity by reporter assays.
Electrophoretic Mobility Shift Assay (EMSA): Nuclear extracts were prepared and EMSA was carried out. […] Six-micrograms of nuclear extract was incubated with binding buffer and with IR-labeled probe for 20 min. Subsequently, samples were separated on a 6% polyacrylamide gel in 0.25× TBE buffer (Tris borate-EDTA) and analyzed by Odyssey Infrared Imaging System (LI-COR Biosciences).
The test system of assay [2] is NF-κB. As to the kind of experiment: Transcriptional activity of NF-κB (PBIIX-Luc reporter) in BV-2 microglial cells. Format: cell-based, mouse. The protocol: Transcriptional activity of NF-κB: Transcriptional activity of NF-κB was assayed. […] After 24 h of transfection, […], and firefly and Renilla luciferase activities were recorded in a TD-20/20 Luminometer (Turner Designs, Sunnyvale, Calif.) by analyzing total cell extract according to standard instructions provided in the Dual Luciferase Kit (Promega), Relative luciferase activity of cell extracts was typically represented as (firefly luciferase value/Renilta luciferase value)×10^−3.

The subject of a further assay is cholesterol. As to the kind of experiment: Serum cholesterol in male C57/BL6 mice. Format: in vivo, mouse. The note with it: 200 mg/kg body wt/d, oral, 7 d. The protocol: Mice (6-8 wk old) were treated with NaPB (200 mg/kg body wt/d) and pravastatin (1 mg/kg body wt/d) separately via gavage for 7 d followed by quantification of cholesterol in serum using a simple fluorometric method.
Intermediates of the mevalonate pathway play a role in the expression of iNOS and proinflammatory cytokines in glial cells. End product of the mevalonate pathway is cholesterol and therefore, we investigated if NaPB had any effect on the level of cholesterol in vivo in mice.
Assay of cholesterol in serum: Total cholesterol was quantified irr serum by using an Amplex Red Cholesterol Assay kit from Invitrogen. Briefly, cholesterol was oxidized by cholesterol oxidase to yield H2O2, which then reacted with 10-acetyl-3,7 dihydroxyphenoxazine (Amplex Red). In the presence of horseradish peroxidase (HRP), this Amplex Red:H2O2 complex produced highly fluorescent resorufin, which was detected by fluorometry.

Assay [3] concerns BV-2 microglial cells. In words: Superoxide production in microglial cells. The note with it: 500 μM. Format: cell-based, mouse. The text has this: Results represent three independent experiments.
Superoxide measurements: Superoxide production was detected by LumiMax™ Superoxide Anion Detection Kit (Stratagene) as described by us (30).

For another assay, the system named is CD11b. The protocol: (§2) A) Mice were treated with NaPB (200 mg/kg body wt/d) from 3 h after the last injection of MPTP. Twenty-four h after the last injection of MPTP, ventral midbrain sections were immunostained for GFAP and CD11b. Results represent analyses of four nigral sections (two images per slide) from each of four mice. The mRNA expression GFAP and CD11b was analyzed by semi-quantitative RT-PCR (B) and quantitative real-time PCR (C).
(§3) Recently activation of glial cells is being considered as a pathological hallmark in PD and other neurodegenerative disorders. Increased expression of CD11b, the beta-integrin marker of microglia, represents microglial activation during neurodegenerative inflammation. Similarly, upon activation, astrocytes also express enhanced level of GFAP, which is considered as a marker protein for astrogliosis. We investigated if NaPB could attenuate MPTP-induced activation of glial cells in vivo in the nigra of mice.
(§4) Semi-quantitative RT-PCR analysis for proinflammatory molecules (iNOS, IL-1β and TNF-α) and glial cell markers: Total RNA was isolated from ventral midbrain using Ultraspec-II RNA reagent (Biotecx .Laboratories, Inc., Houston, Tex.) following manufacturer's protocol. To remove any contaminating genomic DNA, total RNA was digested with DNase. RT-PCR was carried out using a RT-PCR kit (Clontech., Mountain View, Calif.) and following primers.
(§5) Real-time PCR analysis: It was performed in the ABI-Prism7700 sequence detection system (Applied Biosystems, Foster City, Calif.) using TaqMan Universal Master mix and optimized concentrations of FAM-labeled probes and primers.

The next assay has as its system GFAP. The protocol: as §2, §3, §4, §5
The subject of another assay is phospho-IκBα. The note with it: 0.5 mM, 6 h preincubation, LPS 1 μg/ml.
Assay [4] has as its system RelA p65 at the mouse iNOS promoter. Conditions: 0.5 mM, 6 h preincubation, LPS 2 h; proximal NF-κB binding site.
Description: D) Cells preincubated with 0.5 mM NaPB for 6 h were stimulated with LPS for 2 h followed by monitoring the recruitment of RelA p65 to the mouse iNOS promoter by ChIP assay.
Therefore, next we examined the effect of NaPB on the recruitment of p65 to the proximal NF-κB binding site of the iNOS promoter.
Chromatin immunoprecipitation (CUP): ChIP assays were performed using a ChIP assay kit (Upstate Biotechnology, Lake Placid, N.Y.). Briefly, 2×10^6 microglial cells preincubated with gemfibrozil for 6 h were stimulated with LPS. After 3 h of stimulation, cells were fixed by adding formaldehyde (1% final concentration), and cross-linked adducts were resuspended and sonicated, resulting in an average chromatin fragment size of 400 bp. ChIP was performed on the cell lysate by overnight incubation at 4° C. with 2 μg of antibodies against p65 followed by incubation with protein G agarose (Santa Cruz Biotechnology) for 2 h. The beads were washed and incubated with elution buMr. To reverse the cross-linking and purify the DNA, precipitates were incubated in a 65° C. incubator overnight and digested with proteinase K. DNA samples were then purified, precipitated, and precipitates were washed with 75% ethanol, air-dried, and resuspended in TE buffer.
For assay [5], the system named is BV-2 microglial cells. Conditions: 500 μM, 6 h, 1 μM MPP+ 15 min.
Description: Cells were treated with 500 μM NaPB for 6 h followed by stimulation with 1 μM MPP+. At 15 min of stimulation, the generation of ROS was monitored by carboxy-H2DCFDA (A).
We examined if Parkinsonian toxin MPP+ induced the production of ROS from microglia and if NaPB could attenuate such ROS production. To monitor the generation of intracellular ROS in BV-2 microglial cells, we used a cell-permeant fluorescent probe.
Monitoring microglial ROS production: Cells, cultured in 8-well chamber slides, were treated with MPP+ under serum-free condition. At different time points of stimulation, supernatants were removed and cells were washed with Hank's buffered salt solution (HBSS) followed by addition of 100 μl of 25 μM carboxy-H2DCFDA to each well for 30 min of incubation. During the last five minutes of incubation, Hoechst 33342 was added to each well at a dilution of 1:1000 for staining nuclei. Cells were then washed with HBSS, mounted with DPX mounting media and observed under an Olympus 1×81 fluorescent microscope.
The test system of another assay is MPTP-intoxicated mice. The note with it: NaPB 200 mg/kg body wt/day from 3 h after last MPTP; MPTP alone approximately 72% loss.
Assay [6] deals with chronic MPTP mouse model of PD. The note with it: oral 100 mg/kg body wt/d from the third injection of MPTP/probenecid.
Description: A) Six to eight week old male C57BL/6 mice received 10 injections of MPTP (s.c.; 25 mg/kg body weight) together with 10 injections of probenecid (i.p.; 250 mg/kg body weight) for 5 weeks. Control group of mice received only saline. One group of mice were treated with NaPB (100 mg/kg body weight/d) via gavage from the 3rd injection of MPTP/probenecid and continued for 1 week thereafter. Mice were tested for different motor tasks [horizontal activity (C), number of movements (D), rearing (E), and stereotypy (F)] one week after the last injection of MPTP followed by measuring the level of DA in striatum (B). Data are means+SEM of eight mice per group. ^ap<0.001 vs saline; ^bp<0.001 vs MPTP; p<0.05 vs saline; ^dp<0.05 vs MPTP.
We examined if NaPB was capable of protecting neurons in a chronic model (FIG. 10A). […] We initiated oral NaPB treatment (100 mg/kg body wt/d) from the third injection of MPTP/probenecid (FIG. 10A). […]
Behavioral analyses: Two types of behavioral experiments were conducted. This included open field experiment for locomotor activity and rotorod experiment for feet movement. .Locomotor activity was measured after 7 d of the last dose of MPTP injection in Digiscan Monitor (Omnitech Electronics, Inc., Columbus, Ohio). […] [sequence] software was used to analyze and store horizontal and vertical activity data, which were monitored automatically by infra-red beams.
The mark [7] stands for this setting: 200 mg/kg body wt/d from 3 h after last MPTP, RT-PCR, real-time PCR.
[8] abbreviates: 200 mg/kg body wt/d oral from 3 h after last MPTP, 24 h, immunofluorescence.

Description for MPTP-intoxicated mice: We monitored the level of nigral GSH by HPLC.
Analysis of GSH: Nigral tissues were dissected and then sonicated in 0.2M perchloric acid solution followed by centrifugation of nigral extracts at 12,000 rpm for 10 mins at 4° C. Resulting supernatants were analyzed for GSH in Complete Stand-Alone HPLC-ECD System EiCOMHTEC-500 using gold working electrode (Eicorn We-AU) and mobile phase containing 99% 0.1M sodium phosphate buffer (pH 2.5), 1% MeOH. (v/v), and 50 mg/L EDTA-2Na.
Description for p21^ras: A) Mice were treated with NaPB (200 mg/kg body wt/d.) via gavage from 1 d prior to MPTP injection. Six h after the last injection of MPTP, activation of p21^ras and p21^rac was monitored in ventral midbrain tissues. Experiment was repeated three times each time using two animal in each group. […] Results represent three independent experiments.
A) Mice were treated with NaPB (200 mg/kg body wt/d) via gavage from 1 d prior to MPTP injection. At different h of MPTP insult, nigral punches from mice were pooled together and analyzed for the activation of p21′ (A) and the expression of iNOS mRNA (B, RT-PCR; C, real-time PGR). Experiments were repeated three times each time using two animals in each group. ^ap<0.001 vs control (Oh)-iNOS.
Therefore, in order to delineate whether glial activation-associated events happen before or after the loss of dopaminergic neurons, we performed a time-course study to monitor nigral activation of p21^ras and expression of iNOS and striatal loss of dopamine in MPTP-intoxicated mice, Micropunches from the nigra were used for monitoring p21^ras and iNOS.
Animals and MPTP intoxications: Six- to eight-week old C57BL/6 mice were purchased from Harlan, Indianapolis, Ind. […]
Activation of p21^ras and p21^rac: Activation of p21^ras was monitored. […] Then the amount of activated p21^ras was determined in GST beads by a Western blot using a p21^ras specific antibody.
Description for phospho-IκBα: (A) BV-2 microglial cells preincubated with 0.5 mM NaPB for 6 h were stimulated with 1 μg/ml LPS. At different minute of stimulation, the level of phospho-1κBα was monitored by Western blot.
as §6

On to sodium phenylbutyrate [NaPB], for which the “IL-1β-induced activation of iNOS promoter” value in the assay with human iNOS promoter was “markedly inhibited”. Also, in the assay with primary human astroglia, the “IL-1β-induced production of NO” value was “markedly inhibited”. Besides, the “LPS-induced DNA-binding activity of NF-κB” value in the assay on NF-κB [1] is “inhibited”. In the assay on NF-κB [2] (RasV12-transfected cells, NaPB 6 h), the “RasV12-induced activation of NF-κB” value is reported as “attenuated”. In addition, in the assay on NF-κB [2] (different concentrations, 6 h preincubation), the “LPS-induced transcriptional activity of NF-κB” value is “suppressed”. The “reduction of the level of cholesterol in serum” value in the assay on cholesterol was “about 30%”. Further, the “MPP+-induced production of superoxide” value in the assay on BV-2 microglial cells [3] (6 h, 1 μM MPP+) is “attenuated”. For the same substance, in the assay with BV-2 microglial cells [3] (6 h preincubation, 10 min stimulation), the “LPS-, TNF-α-, IL-1β-, gp120-, and Aβ-induced production of superoxide” value is on record as “knocked down”. The “MPTP-induced mRNA expression of CD11b in the nigra” value with CD11b (setting [7]) is listed as “suppressed”. Further, the “CD11b protein expression in the nigra” value in the assay with CD11b (setting [8]) is reported as “inhibition”. In addition, in the assay with GFAP (setting [7]), the “MPTP-induced mRNA expression of GFAP in the nigra” value is “suppressed”. Further, the “GFAP protein expression in the nigra” value in the assay on GFAP (setting [8]) is on record as “inhibition”. Moreover, the “LPS-induced phosphorylation of IκBα” value in the assay with phospho-IκBα was “inhibited”. Also, in assay [4], the “recruitment of p65 to the iNOS promoter” value is “inhibited”. Moreover, the “MPP+-induced production of intracellular ROS” value in the assay on BV-2 microglial cells [5] is on record as “strongly inhibited”. In addition, the “activation of p21^ras in the nigra, time course” value in the assay on p21^ras (200 mg/kg body wt/d gavage from 1 d prior to MPTP, all time points tested (up to 24 h)) is “markedly inhibited”. The “MPTP-induced activation of p21^ras in the nigra” value with p21^ras (200 mg/kg body wt/day gavage from 1 d prior to MPTP, 6 h after last MPTP) is “much decreased activation”. The “loss of nigral GSH” value in the assay on MPTP-intoxicated mice was determined as 18%. The “locomotor activities (horizontal activity, number of movements, rearing, stereotypy)” value in [6] is “improved”.
